Data as given in patent US7404945B2, “Method of evaluating pharmacological effects of medicine” (Tokyo Gas Company Limited, priority 2002, dated 2008).
Counter-ions that a name gives are not always drawn.

Legend:
Type in all cases: in vivo
[1] = tested on: pancreatic protease; assay: Bz-Arg-[1-13C]Ala breath test; conditions: rats
Experimental: The pharmacological effect of camostat mesylate is the inhibition of pancreatic protease. Bz-Arg-[1-^13C]Ala (see Production Example 3) which is a substrate for pancreatic protease is provided as a pharmacological effect diagnostic reagent and a screening reagent. […] The results of the Bz-Arg-[1-^13C]Ala breath test were as follows: in the both groups, the Δ^13C increased linearly until at the time point of 15 minutes after the administration; twenty minutes after the administration, the Δ^13C reached 41.29±7.49‰ in the control group (n=3), while the Δ^13C reached 27.64±4.86‰ in the administration group (n=3); thus, the Δ^13C decreased in the administration group (FIG. 7). From the results, it was confirmed that the function of the target enzyme for camostat mesylate was inhibited under the camostat mesylate administration conditions of the present example.

[2] = molecular target: T1, DOPA decarboxylase (Rattus norvegicus, UniProt P14173); assay: [1-13C]DOPA breath test; conditions: rats
T1 construct: from tissue; host or cells: living rat (whole-animal breath test)
T1 sequence (P14173 1-480): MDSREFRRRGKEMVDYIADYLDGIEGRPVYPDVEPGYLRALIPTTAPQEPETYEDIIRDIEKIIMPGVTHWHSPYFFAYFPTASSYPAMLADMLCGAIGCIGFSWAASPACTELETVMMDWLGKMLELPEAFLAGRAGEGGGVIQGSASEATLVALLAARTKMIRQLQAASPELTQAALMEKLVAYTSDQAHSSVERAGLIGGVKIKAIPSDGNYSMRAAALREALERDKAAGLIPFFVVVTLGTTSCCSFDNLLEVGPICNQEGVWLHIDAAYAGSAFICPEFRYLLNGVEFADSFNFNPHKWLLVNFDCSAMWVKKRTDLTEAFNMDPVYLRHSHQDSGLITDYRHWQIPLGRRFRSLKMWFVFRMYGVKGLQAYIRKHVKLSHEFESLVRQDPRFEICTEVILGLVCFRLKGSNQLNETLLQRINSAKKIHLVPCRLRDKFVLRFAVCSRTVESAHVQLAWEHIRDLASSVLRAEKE
Experimental: The pharmacological effect of benserazide is the inhibition of DOPA decarboxylase. [1-^13C]DOPA (see Production Example 1) which is a substrate for DOPA decarboxylase is provided as a pharmacological effect diagnostic reagent and a screening reagent. Comparison was made in the [1-^13C]DOPA breath test on rats which were administered intraperitoneally with benserazide hydrochloride (Sigma) at a dose of 50 mg/kg three times (i.e., in the morning and evening of the day before the [1-^13C]DOPA breath test and 30 minutes before the breath test was started on the day of the test) (administration group) and rats without administration (control group).
The rats of the administration group and the control group which had been fasted overnight were fixed supinely under anesthesia. […] When the CO2 concentration stabilized, [1-^13C]DOPA was administered at a dose of 50 mg/kg through the femoral vein.
Output data from the ^13CO2 analyzer were AD-converted and input to a personal computer (Apple Power Macintosh 8500). […]
Δ^13C (‰) was calculated from the ^13C level in the exhaled CO2 at each time point (^13Ctmin) and the ^13C level in the standard CO2 (^13Cstd) according to the following equation: Δ^13C(‰)=[(^13Ctmin−^13C0min)/^13Cstd]×1000

[3] = tested on: α-glucosidase; assay: Glc-[U-13C]Glc breath test; conditions: rats, n=2
From the text: The pharmacological effect of acarbose is the inhibition of α-glucosidase. Glc-[U-^13C]Glc (see Production Example 2) which is a substrate for α-glucosidase is provided as a pharmacological effect diagnostic reagent and a screening reagent.

CN(C)C(=O)COC(=O)Cc1ccc(OC(=O)c2ccc(NC(=N)N)cc2)cc1 [camostat mesylate]
function of the target enzyme ([1]; camostat mesylate 20 mg/kg oral): inhibited | Δ13C twenty minutes after the administration ([1]; camostat mesylate 20 mg/kg oral concurrently with Bz-Arg-[1-13C]Ala 12.2 mg/kg oral, n=3): 27.64±4.86 ‰

NC(CO)C(=O)NNCc1ccc(O)c(O)c1O (stereo not shown) [benserazide, benserazide hydrochloride]
inhibition at 50 mg/kg ([2]; rat, ip, benserazide 50 mg/kg i.p. three times, [1-13C]DOPA breath test, read-out: inhibition of the function of the target enzyme): ~100% | Δ13C (degree of increase of the 13C level in exhaled CO2) ([2]; benserazide hydrochloride 50 mg/kg i.p. three times, [1-13C]DOPA 50 mg/kg femoral vein, 20 minutes after the administration): about 5 ‰

C[C@H]1O[C@H](O[C@H]2[C@H](O)[C@@H](O)[C@@H](O[C@H]3[C@H](O)[C@@H](O)C(O)O[C@@H]3CO)O[C@@H]2CO)[C@H](O)[C@@H](O)[C@@H]1N[C@H]1C=C(CO)[C@@H](O)[C@H](O)[C@H]1O (stereo partly shown) [acarbose]
Δ13C in 20 minutes ([3]; acarbose 2 mg/kg oral concurrently with Glc-[U-13C]Glc 25 mg/kg oral): 37.06 ±0.16 ‰ | Δ13C in 20 minutes ([3]; acarbose 4 mg/kg oral concurrently with Glc-[U-13C]Glc 25 mg/kg oral): 26.01 ±0.38 ‰ | Δ13C in 20 minutes ([3]; acarbose 10 mg/kg oral concurrently with Glc-[U-13C]Glc 25 mg/kg oral): 9.86±0.66 ‰
